# Measured values as given in patent US9518976B2, “Methods for identifying or assaying for agents that increase beta-cell proliferation, insulin secretion, insulin sensitivity, glucose tolerance and decrease fat mass” (The Trustees of Columbia University in The City of New York, priority 2006, dated 2016).
# Ends that are not written are not given here.
# How the values were obtained:
# Assay type in all cases: in vivo, mouse
# [1] = Osteocalcin subcutaneous infusion in wt mice: body weight and gonadal fat pad mass
# Procedure: FIG. 13. […] 1) Indicated doses of recombinant osteocalcin or PBS were infused subcutaneously for 28 days in wt mice. Body weight was recorded at indicated days. (2). Gonadal fat pad mass was measured after 28 days.
# In another in vivo experiment, the effect of uncarboxylated osteocalcin on body weight and fat pad mass was monitored (FIG. 13). Wild type mice were infused subcutaneously for 28 days with PBS or uncarboxylated osteocalcin at 0.3, 1 or 3 ng/hour. […] (FIG. 13) Gonadal fat pad mass, measured after 28 days, decreased by about % 18 with 3 ng/hour uncarboxylated osteocalcin treatment.
# [2] = system: GTG-induced obesity in wt mice; test: Osteocalcin subcutaneous infusion in gold thioglucose (GTG)-injected wt mice: body weight gain; details: GTG-injected wild type mice; for body weight gain: 1 ng/hr s.c. osmotic pump for 28 days, from 7 days on, vs PBS
# Procedure: FIG. 14. […] Wt mice were injected with gold thioglucose (GTG) or vehicle to induce hyperphagia and obesity. Two weeks later they were implanted with subcutaneous osmotic pumps infusing […] of recombinant osteocalcin or PBS for 28 days before. Body weight gain was recorded thereafter at indicated days.
# The effect of uncarboxylated osteocalcin on GTG-induced obesity was investigated (FIG. 14). Wild type mice were injected with gold thioglucose (GTG) to induce hyperphagia and obesity or vehicle. Two weeks later they were implanted with subcutaneous osmotic pumps infusing 1 ng/hr of recombinant uncarboxylated osteocalcin or PBS for 28 days. […] At 28 days, body weight was reduced by about 15% with uncarboxylated osteocalcin treatment.
# [3] = system: Wild type mice; test: Osteocalcin subcutaneous infusion in wt mice: glycemia; details: 0.3, 1 and 3 ng/hour subcutaneous infusion for 28 days, vs PBS
# Procedure: FIG. 10. […] Indicated doses of recombinant osteocalcin or PBS were infused subcutaneously for 28 days in wt mice. Blood glucose was measured at indicated days.
# An in vivo experiment was conducted in which the effect of undercarboxylated osteocalcin on glycemia was monitored. Wild type mice were infused with 3 different amounts of mouse recombinant undercarboxylated osteocalcin or placebo (PBS) subcutaneously for 28 days (0.3, 1 and 3 ng/hour).
# [4] = listed as recombinant osteocalcin
substance,measurement,setting,value
"uncarboxylated osteocalcin: Recombinant mouse osteocalcin bacterially produced, cleaved from GST with thrombin; completely undercarboxylated at all three sites (YLGASVPSPDPLEPTREQCELNPACDELSDQYGLKTAYKRIYGITI; not fully specified; ends and bridges not checked; UniProt P86546 50-95, looked up)",gonadal fat pad mass decrease,"[1]; wild type mice, 3 ng/hour s.c., after 28 days",~18%
same,body weight,"[1]; wild type mice, 0.3, 1 or 3 ng/hour s.c. for 28 days, highest dose most effective",slightly reduced
same,gonadal fat pad mass,"[1]; wild type mice, the other doses (0.3, 1 ng/hour), 28 days",did not significantly decrease
same,fat mass,"[1]; wt mice, indicated doses s.c. for 28 days (FIG. 13 legend)",decreases fat mass
same,body weight gain,[2],significantly reduced
same,body weight gain,[2]; [4],prevents GTG-induced obesity
same,body weight reduction,"[2]; 1 ng/hr s.c., at 28 days",about 15%
same,glycemia (blood glucose),[3]; [4],decreases glycemia
same,glycemia (blood glucose),[3]; listed as undercarboxylated osteocalcin,decreased glycemia
